Where two headings read alike, the source gives them in different places.
Tests used:
[1] = Effect antagonizing adrenaline (mortality); type: in vivo; details: Mus musculus, ip, mice, 36 hours, read-out: Antiadrenaline Effects, % mortality reduction; for responders at 100 mg/kg: 100 mg/kg i.p.; for responders at 50 mg/kg: 50 mg/kg i.p.; for responders at 70 mg/kg: 70 mg/kg i.p.; for responders at 300 mg/kg: 300 mg/kg i.p.
Method: (d) Effect antagonizing adrenaline
Male Albino Swiss mice weighing 12-22 g, divided into groups of 10, were treated with the compounds under investigation or with saline (controls) i.p. and then 30 minutes later with adrenaline (treated) at a dose capable of causing death in 100% of the control animals due to ventricular fibrillation and cardiac lesions ensuing from increased heart rate, pressure and oxygen consumption by the myocardium.
Mortality was monitored for 36 hours and the effect of the compounds was expressed in % of survivals versus treated animals.

[2] = Acute toxicity (LD50), Weil method; details: mouse, in vivo, mice (Table I title)
isolated rabbit heart = assay: Inotropic effect on isolated rabbit heart (Langendorff) after anoxia; details: Oryctolagus cuniculus, 10 min; 10^-5 gl^-1, isolated rabbit heart, 10 minutes after end of anoxia; read-out: Inotropic Effect, % of controls (increased percentage versus controls)
Method: Rabbit hearts isolated by Langendorff's method were perfused in a Ringer solution oxygenated at 38.2° C. The isometric […], ECG and coronary flow were recorded using a "Battaglia-Rangoni" polygraph.
Metabolic damage in the heart muscle was induced by removing the oxygen from the perfusion liquid until contractile force was reduced by 80%.
In these conditions of prolonged anoxia myocardial […] glycolysis was slowed down, accompanied by accumulation of catabolic acids due to storage of pyruvic acid and its conversion to lactic acid which cannot be utilized owing to the depression of the pyridinic enzymes, such as lacticodehydrogenase. This affects anaerobic glycolysis involving an ever increasing number of enzymes, with a progressive and increasingly more critical exhaustion of the myocardium.
Thus there is a whole series of cardiac muscle fatigue levels recorded by the pattern of the parameters taken into account i.e. contractile force, coronary output, heart rate and cardiac rhythm. As soon as the contractile force was reduced by 80%, the perfusion liquid was once again oxygenated without adding other compounds (controls) or with the addition of the compounds under investigation at various concentrations.

[3] = Interaction with barbiturates (EVIPAN, loss of righting reflex); type: in vivo; details: Mus musculus, ip, mice, EVIPAN 75 mg/kg, read-out: Barbituric interaction, % reduction of RR (righting reflex) loss; for inhibition in vivo at 50 mg/kg: 50 mg/kg i.p. (head); for inhibition in vivo at 100 mg/kg: 100 mg/kg i.p. (head)
[4] = Anti-arrhythmic (antifibrillation) effect, aconitine-induced arrhythmia; type: in vivo, mice; details: Mus musculus, ip, read-out: Antifibrillation Effects, % reduction
Method: (c) Anti-arrhythmic effect
In order to evaluate by means of in vivo test the anti-arrhythmic effect exerted by the various carnitine derivatives in addition to and versus the usual in vitro tests, the method described by Nwangwu et al. (Arch. Int. Pharmacodyn., 1977, v. 229, 219) was employed.
This method is carried out by injecting a solution of aconitine into the caudal […] and recording the time of the appearance of arrhythmia and tachycardia from 2 to 60 minutes following the administration of the compounds under investigation.

[5] = Effect on spontaneous motility (ANIMEX); type: in vivo; details: Mus musculus, ip, 0.5 h, mice, control 850 ± 65 in 30 min, read-out: Spontaneous motility, % increase versus controls; for change in vivo at 25 mg/kg: 25 mg/kg i.p.; for change in vivo at 50 mg/kg: 50 mg/kg i.p.
Method: (g) Effect on spontaneous motility
Male Albino Swiss mice weighing 18-22 g, were divided into two groups of 5 and caged for at least 1 week. One group received the compounds under investigation and the other group (control group) was given the vehicle. The animals remained in their cages and were placed on the ANIMEX (Farad-Sweden) apparatus which recorded the movements for two 30-minute intervals beginning from 5 minutes after administration of the compounds.
Table II gives the results expressed as percentage variation in the number of spontaneous movements of the treated animals versus those of the control animals.

[6] = Antagonism to cardiazol (protection from death by convulsions); type: in vivo; details: ip, rat, 5 hours; for responders at 100 mg/kg: 100 mg/kg i.p. (head); for responders at 150 mg/kg: 150 mg/kg i.p. (head); for responders at 50 mg/kg: 50 mg/kg i.p. (head)

Structure (SMILES)	LD50 ([2]; ip, read-out: LD50 i.p.)	LD50 ([2]; oral, read-out: LD50 oral)	activation at 0.01 µg/mL (isolated rabbit heart)	change in vivo at 25 mg/kg [5]	inhibition in vivo at 50 mg/kg [3]	inhibition in vivo at 50 mg/kg [4]	change in vivo at 50 mg/kg [5]	inhibition in vivo at 100 mg/kg [3]	responders at 50 mg/kg [6]	further results
CCC(C)C(NC(=O)CC(C[N+](C)(C)C)OC(C)=O)C(=O)OC (stereo not drawn)	500 mg/kg	1200 mg/kg	45%	34%						responders at 100 mg/kg [1]: 50%; inhibition in vivo at 40 mg/kg ([3]; 40 mg/kg i.p. (head)): 35%; inhibition in vivo at 40 mg/kg [4]: 65%; responders at 100 mg/kg [6]: 53%
COC(=O)C(NC(=O)CC(C[N+](C)(C)C)OC(C)=O)C(C)C (stereo not drawn)	600 mg/kg	2400 mg/kg	70%		40%	100%				responders at 50 mg/kg [1]: 80%; change in vivo at 35 mg/kg ([5]; 35 mg/kg i.p.): 50%; responders at 100 mg/kg [6]: 84%
COC(=O)C(CC(C)C)NC(=O)CC(C[N+](C)(C)C)OC(C)=O (stereo not drawn)	1000 mg/kg	3500 mg/kg	45%	28%	35%	70%				responders at 50 mg/kg [1]: 75%; responders at 150 mg/kg [6]: 60%
CCOC(=O)CC(O)CNC(=O)CC(C[N+](C)(C)C)OC(C)=O (stereo not drawn)	450 mg/kg	1300 mg/kg	53%		25%	65%	30%			responders at 70 mg/kg [1]: 60%; responders at 150 mg/kg [6]: 70%
CCC(=O)OC(CC(=O)NC(C(=O)OC)C(C)CC)C[N+](C)(C)C (stereo not drawn)	750 mg/kg	2500 mg/kg	65%			65%		27%	39%	responders at 100 mg/kg [1]: 50%; change in vivo at 100 mg/kg ([5]; 100 mg/kg i.p.): 35%
CCC(=O)OC(CC(=O)NC(C(=O)OC)C(C)C)C[N+](C)(C)C (stereo not drawn)	500 mg/kg	1350 mg/kg	65%	75%	58%					responders at 50 mg/kg [1]: 40%; inhibition in vivo at 35 mg/kg [4]: 60%; responders at 35 mg/kg ([6]; 35 mg/kg i.p. (head)): 38%
CCC(=O)OC(CC(=O)NC(CC(=O)OC)C(=O)OC)C[N+](C)(C)C (stereo not drawn)	590 mg/kg	1800 mg/kg	50%	59%				25%		responders at 100 mg/kg [1]: 70%; inhibition in vivo at 40 mg/kg [4]: 70%; responders at 40 mg/kg ([6]; 40 mg/kg i.p. (head)): 51%
CCC(=O)OC(CC(=O)NC(CCC(=O)OC)C(=O)OC)C[N+](C)(C)C (stereo not drawn)	400 mg/kg	1200 mg/kg	45%		50%		25%		47%	responders at 70 mg/kg [1]: 40%; inhibition in vivo at 10 mg/kg [4]: 60%
CC(=O)OC(CC(=O)NCCS(=O)(=O)[O-])C[N+](C)(C)C (stereo not drawn) [COCH3; 2-sulfonyl ethyl amino, acetyl carnitine amide with taurine]	1500 mg/kg	4000 mg/kg	62%				25%	30%		responders at 450 mg/kg ([1]; 450 mg/kg i.p.): 65%; inhibition in vivo at 300 mg/kg [4]: 70%; responders at 150 mg/kg [6]: 65%
COC(=O)CC(NC(=O)CC(C[N+](C)(C)C)OC(C)=O)C(=O)OC (stereo not drawn) [COCH3; (1,2-dicarbomethoxy ethyl) amino]	1500 mg/kg	4200 mg/kg	48%				60%		75%	responders at 300 mg/kg [1]: 55%; inhibition in vivo at 75 mg/kg [4]: 80%
COC(=O)CCC(NC(=O)CC(C[N+](C)(C)C)OC(C)=O)C(=O)OC (stereo not drawn) [COCH3; (1,3-dicarbomethoxy propyl) amino]	1000 mg/kg	3600 mg/kg	40%	19%					70%	responders at 150 mg/kg ([1]; 150 mg/kg i.p.): 40%; inhibition in vivo at 20 mg/kg ([3]; 20 mg/kg i.p. (head)): 40%; inhibition in vivo at 20 mg/kg [4]: 65%
CCC(=O)OC(CC(=O)NCCS(=O)(=O)[O-])C[N+](C)(C)C (stereo not drawn) [OCOCH2 CH3; 2-sulfonyl ethyl amino]	1500 mg/kg	4000 mg/kg	50%				40%	60%		responders at 300 mg/kg [1]: 70%; inhibition in vivo at 150 mg/kg [4]: 95%; responders at 150 mg/kg [6]: 40%
CCCC(=O)OC(CC(=O)NCCS(=O)(=O)[O-])C[N+](C)(C)C (stereo not drawn) [OCOCH2CH2CH3; 2-sulfonyl ethyl amino]	1500 mg/kg	4000 mg/kg	40%		70%	60%	43%		58%	responders at 300 mg/kg [1]: 50%
CCC(=O)OC(CC(=O)NC(CC(C)C)C(=O)OC)C[N+](C)(C)C (stereo not drawn) [propionyl carnitine amide of leucine methyl ester]	600 mg/kg	2350 mg/kg	45%			75%	62%	31%	32%	responders at 100 mg/kg [1]: 70%
